# Data from ChEMBL document CHEMBL2021794, “Synthesis, σ₁, σ₂-receptors binding affinity and antiproliferative action of new C1-substituted adamantanes” (Bioorg Med Chem, 2012).
# Activity calls are given as the source filed them. The rule behind the calls is not given here.
# Legend:
# IGROV-1 [1] = test: Cytotoxicity against human IGROV1 cells after 48 hrs by trypan blue assay; assay type: functional, cell-based
# IGROV-1 [2] = test: Cell cycle arrest in human IGROV1 cells assessed as accumulation at < G1 phase at 0.5 uM after 24 hrs by propidium iodide staining based flow cytometry (reference value: 4%); assay type: functional
# BXPC-3 [3] = test: Growth inhibition of human BxPC3 cells after 48 hrs by SRB assay; assay type: functional; conditions: BXPC-3, 48 h
# BXPC-3 [4] = test: Cell cycle arrest in human BxPC3 cells assessed as accumulation at G1 phase at 15 uM after 24 hrs by propidium iodide staining based flow cytometry (reference value: 41%); assay type: functional
# BXPC-3 [5] = test: Induction of apoptosis in human BxPC3 cells assessed as cleaved caspase-3 containing cells at 0.5 uM after 24 hrs by FACS analysis (reference value: 10%); assay type: functional
# IGROV-1 [6] = test: Cell cycle arrest in human IGROV1 cells assessed as accumulation at G2 phase at 0.5 uM after 24 hrs by propidium iodide staining based flow cytometry (reference value: 19%); assay type: functional
# PC-3 [7] = test: Induction of apoptosis in human PC3 cells assessed as cleaved caspase-3 containing cells at 0.5 uM after 24 hrs by FACS analysis (reference value: 3%); assay type: functional
# [8] = (§1) Growth inhibition of HUVEC cells after 48 hrs by SRB assay; assay type: cell-based; conditions: human, HUVEC cells
# HUVEC = test: as §1; assay type: cell-based; conditions: human, huvec, 48 h
# BXPC-3 [9] = test: Antitumor activity against human BxPC3 cells xenografted in SCID mouse assessed as tumor weight at 40 mg/kg, ip for 5 consecutive days and 2 administrations for one more week (reference value: 723 +/- 45 mg); assay type: functional; conditions: route intraperitoneal
# PC-3 [10] = test: Induction of apoptosis in human PC3 cells assessed as cleaved caspase-3 containing cells at 50 uM after 24 hrs by FACS analysis (reference value: 3%); assay type: functional
# U-251 = test: Cytotoxicity against human U251 cells after 48 hrs by trypan blue assay; assay type: functional, cell-based
# PC-3 [11] = test: Cell cycle arrest in human PC3 cells assessed as accumulation at >G2 phase at 5 uM after 24 hrs by propidium iodide staining based flow cytometry (reference value: 6%); assay type: functional
# IGROV-1 [12] = test: Induction of apoptosis in human IGROV1 cells assessed as cleaved caspase-3 containing cells at 50 uM after 24 hrs by FACS analysis (reference value: 4%); assay type: functional
# IGROV-1 [13] = test: Induction of apoptosis in human IGROV1 cells assessed as cleaved caspase-3 containing cells at 5 uM after 24 hrs by FACS analysis (reference value: 4%); assay type: functional
# OVCAR-5 [14] = test: Growth inhibition of human OVCAR5 cells after 48 hrs by SRB assay; assay type: functional; conditions: OVCAR-5, 48 h
# LOX IMVI = test: Growth inhibition of human LOXIMVI cells after 48 hrs by SRB assay; assay type: functional
# HCT-15 = test: Cytotoxicity against human HCT15 cells after 48 hrs by trypan blue assay; assay type: functional, cell-based
# PC-3 [15] = test: Cell cycle arrest in human PC3 cells assessed as accumulation at >G2 phase at 15 uM after 24 hrs by propidium iodide staining based flow cytometry (reference value: 6%); assay type: functional
# PC-3 [16] = test: Cytotoxicity against human PC3 cells after 48 hrs by trypan blue assay; assay type: functional, cell-based
# IGROV-1 [17] = test: Induction of apoptosis in human IGROV1 cells assessed as late apoptotic cells at 5 uM after 24 hrs by Annexin V/7-AAD staining based flow cytometry (reference value: 4%); assay type: functional
# IGROV-1 [18] = test: Cell cycle arrest in human IGROV1 cells assessed as accumulation at >G2 phase at 15 uM after 24 hrs by propidium iodide staining based flow cytometry (reference value: 21%); assay type: functional
# BXPC-3 [19] = test: Cell cycle arrest in human BxPC3 cells assessed as accumulation at S phase at 50 uM after 24 hrs by propidium iodide staining based flow cytometry (reference value: 33%); assay type: functional
# SK-HEP1 = test: Growth inhibition of human SKHEP1 cells after 48 hrs by SRB assay; assay type: functional; conditions: SK-HEP1, 48 h
# BXPC-3 [20] = test: Induction of apoptosis in human BxPC3 cells assessed as total apoptotic death cells at 50 uM after 24 hrs by Annexin V/7-AAD staining based flow cytometry (reference value: 20%); assay type: functional
# IGROV-1 [21] = test: Induction of apoptosis in human IGROV1 cells assessed as healthy cells at 5 uM after 24 hrs by Annexin V/7-AAD staining based flow cytometry (reference value: 86%); assay type: functional
# PC-3 [22] = test: Induction of apoptosis in human PC3 cells assessed as cleaved caspase-3 containing cells at 15 uM after 24 hrs by FACS analysis (reference value: 3%); assay type: functional
# BXPC-3 [23] = test: Cell cycle arrest in human BxPC3 cells assessed as accumulation at >G2 phase at 5 uM after 24 hrs by propidium iodide staining based flow cytometry (reference value: 6%); assay type: functional
# BXPC-3 [24] = test: Induction of apoptosis in human BxPC3 cells assessed as late apoptotic cells at 15 uM after 24 hrs by Annexin V/7-AAD staining based flow cytometry (reference value: 9%); assay type: functional
# PC-3 [25] = test: Cell cycle arrest in human PC3 cells assessed as accumulation at S phase at 5 uM after 24 hrs by propidium iodide staining based flow cytometry (reference value: 42%); assay type: functional
# PC-3 [26] = test: Induction of apoptosis in human PC3 cells assessed as healthy cells at 5 uM after 24 hrs by Annexin V/7-AAD staining based flow cytometry (reference value: 92%); assay type: functional
# SF-268 = test: Cytotoxicity against human SF268 cells after 48 hrs by trypan blue assay; assay type: functional, cell-based
# NCI-H69 = test: Growth inhibition of human NCI-H69 cells after 48 hrs by SRB assay; assay type: functional; conditions: NCI-H69, 48 h
# MCF7 = test: Growth inhibition of human MCF7 cells after 48 hrs by SRB assay; assay type: functional; conditions: MCF7, 48 h
# OVCAR-5 [27] = test: Cytotoxicity against human OVCAR5 cells after 48 hrs by trypan blue assay; assay type: functional, cell-based
# Mus musculus = test: Toxicity in CD1 mouse assessed as weight loss at 40 mg/kg, ip after 3 to 4 weeks chronic treatment; assay type: organism-based; set-up: dose 40 mg/kg, route intraperitoneal; conditions: in vivo
# BXPC-3 [28] = test: Induction of apoptosis in human BxPC3 cells assessed as cleaved caspase-3 containing cells at 5 uM after 24 hrs by FACS analysis (reference value: 10%); assay type: functional
# BXPC-3 [29] = test: Cell cycle arrest in human BxPC3 cells assessed as accumulation at G2 phase at 50 uM after 24 hrs by propidium iodide staining based flow cytometry (reference value: 12%); assay type: functional
# BXPC-3 [30] = test: Cell cycle arrest in human BxPC3 cells assessed as accumulation at >G2 phase at 15 uM after 24 hrs by propidium iodide staining based flow cytometry (reference value: 6%); assay type: functional
# MIA PaCa-2 = test: Antitumor activity against human MIAPaCa2 cells xenografted in SCID mouse assessed as reduction in tumor volume at 45 mg/kg, ip for 3 consecutive days; assay type: functional; conditions: MIA PaCa-2, ip, route intraperitoneal
# [31] = read-out: LC50 (the source's name)
smiles,measurement,setting,value
CN1CCN(c2ccc(C(c3ccccc3)C34CC5CC(CC(C5)C3)C4)cc2)CC1 (configuration not stated),Activity,IGROV-1 [1],Active
same,Activity,IGROV-1 [2],3%
same,GI50,BXPC-3 [3],3.84 µM
same,LC50,BXPC-3 [3],16.6 µM
same,TGI,BXPC-3 [3],6.96 µM
same,Activity,BXPC-3 [4],51%
same,Activity,BXPC-3 [5],3%
same,Activity,IGROV-1 [6],20%
same,Activity,PC-3 [7],1%
same,GI50 at 48 h,[8],4.52 µM
same,LC50,HUVEC,10.34 µM
same,TGI,HUVEC,7.43 µM
same,Activity,BXPC-3 [9],690 mg
same,Activity,PC-3 [10],18%
same,Activity,U-251,Active
same,Activity,PC-3 [11],5%
same,Activity,IGROV-1 [12],68%
same,Activity,IGROV-1 [13],7%
same,GI50,OVCAR-5 [14],8 µM
same,TGI,OVCAR-5 [14],41.9 µM
same,CC50,OVCAR-5 [14]; [31],94.5 µM
same,GI50,LOX IMVI,3.36 µM
same,LC50 (concentration killing 50% of cells),LOX IMVI,8.41 µM
same,TGI,LOX IMVI,5.88 µM
same,Activity,HCT-15,Active
same,Activity,PC-3 [15],5%
same,Activity,PC-3 [16],Active
same,Activity,IGROV-1 [17],3%
same,Activity,IGROV-1 [18],20%
same,Activity,BXPC-3 [19],24%
same,GI50,SK-HEP1,6.05 µM
same,TGI,SK-HEP1,28.4 µM
same,CC50,SK-HEP1; [31],77.6 µM
same,Activity,BXPC-3 [20],48%
same,Activity,IGROV-1 [21],88%
same,Activity,PC-3 [22],3%
same,Activity,BXPC-3 [23],8%
same,Activity,BXPC-3 [24],16%
same,Activity,PC-3 [25],42%
same,Activity,PC-3 [26],92%
same,Activity,SF-268,Active
same,GI50,NCI-H69,7.09 µM
same,CC50,NCI-H69; [31],100 µM
same,GI50,MCF7,11.6 µM
same,TGI,MCF7,16.9 µM
same,CC50,MCF7; [31],3.17 µM
same,Activity,OVCAR-5 [27],Active
same,Activity,Mus musculus,Non-toxic
same,Activity,BXPC-3 [28],5%
same,Activity,BXPC-3 [29],13%
same,Activity,BXPC-3 [30],5%
same,inhibition in vivo at 45 mg/kg,MIA PaCa-2,47.5%
